In PubChem BioAssay (NCI):
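Where inhibition never reached the appropriate level, the endpoint shown equals the highest concentration tested. Otherwise, values were interpolated linearly from a five-concentration, 48-hour dose response in 96-well plates. The concentration for full growth arrest is given as TGI.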

Tests used:
Test in all cases: NCI-60 cell line screen, 48 h
HOP-62 NSCLC = system: HOP-62 NSCLC
M19-MEL melanoma = system: M19-MEL melanoma
HCT-116 colon = system: HCT-116 colon
XF 498 CNS = system: XF 498 CNS
HOP-92 NSCLC = system: HOP-92 NSCLC
NCI-H522 lung = system: NCI-H522 lung
RPMI-8226 leukemia = system: RPMI-8226 leukemia
SF-295 CNS = system: SF-295 CNS
HOP-18 NSCLC = system: HOP-18 NSCLC
CAKI-1 renal = system: CAKI-1 renal
EKVX NSCLC = system: EKVX NSCLC
KM12 colon = system: KM12 colon
COLO 205 colon = system: COLO 205 colon
RXF-631 renal = system: RXF-631 renal
UACC-257 melanoma = system: UACC-257 melanoma
NCI-H226 lung = system: NCI-H226 lung
HT29 colon = system: HT29 colon
UO-31 renal = system: UO-31 renal
SK-MEL-2 melanoma = system: SK-MEL-2 melanoma
SNB-78 CNS = system: SNB-78 CNS
NCI-H460 lung = system: NCI-H460 lung
LXFL 529 NSCLC = system: LXFL 529 NSCLC
786-0 renal = system: 786-0 renal
LOX IMVI melanoma = system: LOX IMVI melanoma
SW-620 colon = system: SW-620 colon
A498 renal = system: A498 renal
ACHN renal = system: ACHN renal
OVCAR-8 ovarian = system: OVCAR-8 ovarian
IGROV1 ovarian = system: IGROV1 ovarian
RXF 393 renal = system: RXF 393 renal
U251 CNS = system: U251 CNS
SNB-75 CNS = system: SNB-75 CNS
CCRF-CEM leukemia = system: CCRF-CEM leukemia
HL-60(TB) leukemia = system: HL-60(TB) leukemia
DLD-1 colon = system: DLD-1 colon
HCC-2998 colon = system: HCC-2998 colon
OVCAR-4 ovarian = system: OVCAR-4 ovarian
MALME-3M melanoma = system: MALME-3M melanoma
SK-MEL-28 melanoma = system: SK-MEL-28 melanoma
M14 melanoma = system: M14 melanoma
SNB-19 CNS = system: SNB-19 CNS
A549 NSCLC = system: A549 NSCLC
UACC-62 melanoma = system: UACC-62 melanoma
SF-268 CNS = system: SF-268 CNS
MOLT-4 leukemia = system: MOLT-4 leukemia
NCI-H23 lung = system: NCI-H23 lung
HCT-15 colon = system: HCT-15 colon
SF-539 CNS = system: SF-539 CNS
TK-10 renal = system: TK-10 renal
SK-MEL-5 melanoma = system: SK-MEL-5 melanoma
SN12C renal = system: SN12C renal
OVCAR-5 ovarian = system: OVCAR-5 ovarian
SK-OV-3 ovarian = system: SK-OV-3 ovarian
OVCAR-3 ovarian = system: OVCAR-3 ovarian
K-562 leukemia = system: K-562 leukemia
DMS 273 small cell lung = system: DMS 273 small cell lung
DMS 114 small cell lung = system: DMS 114 small cell lung
KM20L2 colon = system: KM20L2 colon

In the case of CN(C)C(=S)/N=c1\ssc(=S)n1Cc1ccccn1, the TGI (HOP-62 NSCLC) was over 100 µM, the TGI (M19-MEL melanoma) was over 100 µM and the TGI (HCT-116 colon) was over 100 µM. It also gave a TGI (XF 498 CNS) of 34.3 µM, a TGI (HOP-92 NSCLC) of 64.5 µM and a TGI (NCI-H522 lung) of 4.17 µM. It also gave a TGI (RPMI-8226 leukemia) of over 25.9 µM, a TGI (SF-295 CNS) of over 65.7 µM and a TGI (HOP-18 NSCLC) of over 100 µM. The TGI (CAKI-1 renal) was over 100 µM, the TGI (EKVX NSCLC) was over 100 µM and the TGI (KM12 colon) was over 48 µM. The TGI (COLO 205 colon) was 21.4 µM, the TGI (RXF-631 renal) was over 100 µM and the TGI (UACC-257 melanoma) was over 100 µM. It also gave a TGI (NCI-H226 lung) of over 100 µM, a TGI (HT29 colon) of over 100 µM and a TGI (UO-31 renal) of over 100 µM. It also gave a TGI (SK-MEL-2 melanoma) of 5.98 µM, a TGI (SNB-78 CNS) of over 100 µM and a TGI (NCI-H460 lung) of 16.8 µM. For the same molecule, the TGI (LXFL 529 NSCLC) was over 100 µM, the TGI (786-0 renal) was 29.1 µM and the TGI (LOX IMVI melanoma) was over 100 µM. For the same molecule, the TGI (SW-620 colon) was over 100 µM, the TGI (A498 renal) was over 81.4 µM and the TGI (ACHN renal) was over 100 µM. It also gave a TGI (OVCAR-8 ovarian) of over 100 µM, a TGI (IGROV1 ovarian) of over 100 µM and a TGI (RXF 393 renal) of 20 µM. For the same molecule, the TGI (U251 CNS) was over 100 µM, the TGI (SNB-75 CNS) was over 56.6 µM and the TGI (CCRF-CEM leukemia) was over 26.2 µM. The TGI (HL-60(TB) leukemia) was over 19.8 µM, the TGI (DLD-1 colon) was over 100 µM and the TGI (HCC-2998 colon) was over 100 µM. It also gave a TGI (OVCAR-4 ovarian) of over 52.3 µM, a TGI (MALME-3M melanoma) of 22.7 µM and a TGI (SK-MEL-28 melanoma) of over 100 µM. The TGI (M14 melanoma) was over 48.2 µM, the TGI (SNB-19 CNS) was over 100 µM and the TGI (A549 NSCLC) was over 100 µM. The TGI (UACC-62 melanoma) was 11 µM, the TGI (SF-268 CNS) was over 100 µM and the TGI (MOLT-4 leukemia) was over 100 µM. For the same molecule, the TGI (NCI-H23 lung) was over 100 µM, the TGI (HCT-15 colon) was over 100 µM and the TGI (SF-539 CNS) was 45.5 µM. The TGI (TK-10 renal) was over 100 µM, the TGI (SK-MEL-5 melanoma) was over 54.4 µM and the TGI (SN12C renal) was over 100 µM. It also gave a TGI (OVCAR-5 ovarian) of over 100 µM, a TGI (SK-OV-3 ovarian) of over 100 µM and a TGI (OVCAR-3 ovarian) of 11.3 µM.

For CCCCCCCCCCCCCCCCCCOCC1(COP(=O)([O-])OCC[N+](C)(C)C)CCCO1 (configuration not stated), the TGI (HOP-62 NSCLC) was 9.45 µM, the TGI (M19-MEL melanoma) was 10.8 µM and the TGI (HCT-116 colon) was 22 µM. It also gave a TGI (XF 498 CNS) of 20.5 µM, a TGI (HOP-92 NSCLC) of 6.09 µM and a TGI (NCI-H522 lung) of 6.23 µM. The TGI (RPMI-8226 leukemia) was 8.55 µM, the TGI (SF-295 CNS) was 6.84 µM and the TGI (HOP-18 NSCLC) was 10.9 µM. For the same molecule, the TGI (KM12 colon) was 3.33 µM, the TGI (K-562 leukemia) was 31.7 µM and the TGI (COLO 205 colon) was 3.63 µM. For the same molecule, the TGI (UACC-257 melanoma) was 27.3 µM, the TGI (NCI-H226 lung) was 20.1 µM and the TGI (HT29 colon) was 12.4 µM. It also gave a TGI (UO-31 renal) of 21.9 µM, a TGI (SK-MEL-2 melanoma) of 22.8 µM and a TGI (SNB-78 CNS) of 29.5 µM. For the same molecule, the TGI (DMS 273 small cell lung) was 3.13 µM, the TGI (NCI-H460 lung) was 3.23 µM and the TGI (LXFL 529 NSCLC) was 16.6 µM. The TGI (786-0 renal) was 13.6 µM, the TGI (LOX IMVI melanoma) was 19.3 µM and the TGI (A498 renal) was 11.8 µM. For the same molecule, the TGI (ACHN renal) was 19.4 µM, the TGI (OVCAR-8 ovarian) was 26.5 µM and the TGI (IGROV1 ovarian) was 6.63 µM. The TGI (RXF 393 renal) was 1.89 µM, the TGI (U251 CNS) was 7.03 µM and the TGI (SNB-75 CNS) was 18.3 µM. For the same molecule, the TGI (CCRF-CEM leukemia) was 11.6 µM, the TGI (HL-60(TB) leukemia) was 5.24 µM and the TGI (DLD-1 colon) was 12.5 µM. It also gave a TGI (HCC-2998 colon) of 4.68 µM, a TGI (OVCAR-4 ovarian) of 8.38 µM and a TGI (MALME-3M melanoma) of 26.2 µM. The TGI (SK-MEL-28 melanoma) was 32.2 µM, the TGI (M14 melanoma) was 8.59 µM and the TGI (SNB-19 CNS) was 11.1 µM. The TGI (A549 NSCLC) was 20.6 µM, the TGI (DMS 114 small cell lung) was 18.1 µM and the TGI (UACC-62 melanoma) was 21.4 µM. It also gave a TGI (SF-268 CNS) of 18.2 µM, a TGI (MOLT-4 leukemia) of 4.84 µM and a TGI (NCI-H23 lung) of 31.9 µM. For the same molecule, the TGI (SF-539 CNS) was 29.4 µM, the TGI (TK-10 renal) was 3.54 µM and the TGI (KM20L2 colon) was 11.9 µM. The TGI (SK-MEL-5 melanoma) was 27.7 µM, the TGI (SN12C renal) was 5.81 µM and the TGI (OVCAR-5 ovarian) was 25.1 µM. It also gave a TGI (SK-OV-3 ovarian) of 27.7 µM and a TGI (OVCAR-3 ovarian) of 15.7 µM.
